The supplement of paper PMC10307832

Key:
Assay in all cases: relative viability (nuclei count vs DMSO), 5 days (fraction); higher = more cells survive
Bleomycin + OSI-027 = compound: CC1=C(N=C(N=C1N)[C@H](CC(=O)N)NC[C@@H](C(=O)N)N)C(=O)N[C@@H]([C@H](C2=CN=CN2)OC3C(C(C(C(O3)CO)O)O)OC4C(C(C(C(O4)CO)O)OC(=O)N)O)C(=O)N[C@H](C)[C@H]([C@H](C)C(=O)N[C@@H]([C@@H](C)O)C(=O)NCCC5=NC(=CS5)C6=NC(=CS6)C(=O)NCCC[S+](C)C)O [Bleomycin] + COc1cccc2cc(-c3nc([C@H]4CC[C@H](C(=O)O)CC4)n4ncnc(N)c34)[nH]c12 [OSI-027] (partner 0.5 µM); details: main component drawn
In short: (§1)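 Lung cancer cell lines were seeded in 1536-well plates and dosed by pin tool the next day, with either a single drug or a fixed anchor-drug dose combined with five library-drug doses (not always all listed) spaced in √10 steps. Five days later, one step fixed the cells and stained their nuclei (final 0.05% Triton X-100, 1% formaldehyde, 1 ug/ml Hoechst), and nuclei were counted on 4× images. Relative viability is the nuclei count in treated wells divided by the count in vehicle wells, and each value is the median of duplicate plates.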

Etoposide + Luminespib = compound: COc1cc([C@@H]2c3cc4c(cc3[C@@H](O[C@@H]3O[C@@H]5CO[C@@H](C)O[C@H]5[C@H](O)[C@H]3O)[C@H]3COC(=O)[C@H]23)OCO4)cc(OC)c1O [Etoposide] + CCNC(=O)c1noc(-c2cc(C(C)C)c(O)cc2O)c1-c1ccc(CN2CCOCC2)cc1 [Luminespib] (partner 0.01 µM)
In short: as §1

Etoposide + Lapatinib = compound: COc1cc([C@@H]2c3cc4c(cc3[C@@H](O[C@@H]3O[C@@H]5CO[C@@H](C)O[C@H]5[C@H](O)[C@H]3O)[C@H]3COC(=O)[C@H]23)OCO4)cc(OC)c1O [Etoposide] + CS(=O)(=O)CCNCc1ccc(-c2ccc3ncnc(Nc4ccc(OCc5cccc(F)c5)c(Cl)c4)c3c2)o1 [Lapatinib] (partner 2 µM)
In short: as §1

Etoposide + AZD7762 = compound: COc1cc([C@@H]2c3cc4c(cc3[C@@H](O[C@@H]3O[C@@H]5CO[C@@H](C)O[C@H]5[C@H](O)[C@H]3O)[C@H]3COC(=O)[C@H]23)OCO4)cc(OC)c1O [Etoposide] + NC(=O)Nc1cc(-c2cccc(F)c2)sc1C(=O)N[C@H]1CCCNC1 [AZD7762] (partner 0.2 µM)
In short: as §1

Cell Line	relative viability (Bleomycin + OSI-027; first compound 0.01 µM)	relative viability (Bleomycin + OSI-027; first compound 0.03162 µM)	relative viability (Bleomycin + OSI-027; first compound 0.1 µM)	relative viability (Bleomycin + OSI-027; first compound 0.3162 µM)	relative viability (Bleomycin + OSI-027; first compound 1 µM)	relative viability (Etoposide + Luminespib; first compound 0.01 µM)	relative viability (Etoposide + Luminespib; first compound 0.03162 µM)	relative viability (Etoposide + Luminespib; first compound 0.1 µM)	relative viability (Etoposide + Luminespib; first compound 0.3162 µM)	relative viability (Etoposide + Luminespib; first compound 1 µM)	relative viability (Etoposide + Lapatinib; first compound 0.01 µM)	relative viability (Etoposide + Lapatinib; first compound 0.03162 µM)	relative viability (Etoposide + Lapatinib; first compound 0.1 µM)	relative viability (Etoposide + Lapatinib; first compound 0.3162 µM)	relative viability (Etoposide + Lapatinib; first compound 1 µM)	relative viability (Etoposide + AZD7762; first compound 0.01 µM)	relative viability (Etoposide + AZD7762; first compound 0.03162 µM)	relative viability (Etoposide + AZD7762; first compound 0.1 µM)	relative viability (Etoposide + AZD7762; first compound 0.3162 µM)	relative viability (Etoposide + AZD7762; first compound 1 µM)
NCI-H650	0.433	0.546	0.481	0.429	0.234	0.695	0.895	0.336	0.179	0.174	0.657	0.951	0.409	0.418	0.207	0.859	0.977	0.563	0.538	0.207
NCI-H1755	0.67	0.727	0.706	0.718	0.427	0.481	0.415	0.45	0.483	0.277	1.06	1.13	1.02	0.988	0.71	0.45	0.487	0.407	0.403	0.52
NCI-H322M	0.399	0.535	0.513	0.464	0.421	0.789	0.846	0.553	0.486	0.392	0.558	0.596	0.55	0.586	0.389	0.473	0.562	0.47	0.502	0.473
PC-3 [JPC-3]	0.687	0.789	0.648	0.506	0.41	0.67	0.717	0.549	0.581	0.371	0.432	0.487	0.344	0.475	0.374	0.782	0.92	0.604	0.785	0.73
NCI-H2405	0.617	0.596	0.567	0.477	0.346	0.646	0.65	0.949	0.664	0.301	1.16	1.24	0.746	0.77	0.275	0.754	0.765	0.728	0.638	0.317
NCI-H23	0.361	0.401	0.272	0.141	0.145	0.23	0.204	0.207	0.212	0.246	1.11	1.04	0.608	0.324	0.215	0.246	0.307	0.187	0.195	0.172
NCI-H1793	0.271	0.311	0.249	0.156	0.138	0.203	0.184	–	0.181	0.169	0.543	0.682	–	0.687	0.288	–	0.548	0.282	0.474	0.196
EKVX	0.636	0.711	0.598	0.398	0.387	0.921	0.885	0.444	0.658	0.307	0.195	0.197	0.153	0.159	0.143	0.759	0.818	0.268	0.344	0.272
